PubChem BioAssay AID743334 (Broad Institute, 2014)
Calls of active or inactive are those of the source.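 The calls were made as follows: active = curve reaches 40% rise within the top valid dose, in every run; inconclusive = runs give conflicting calls; inactive = opposite-direction activity, or every run inactive.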

Assay: statin-free myotube ATP level counter-assay – cell-based, no simvastatin, luminescence, dry powder, counter-screen for statin myotoxicity suppressor project, dose response (AID 743334)
Conditions: C2C12 myotubes ATP, CellTiter-Glo luminescence, 48 h; at 18 µM (top of the series)

| SMILES | ATP level change, positive = increase |
| --- | --- |
| C[C@H](CO)N1C[C@H](C)[C@H](CN(C)Cc2ccc3c(c2)OCO3)Oc2ccc(NC(=O)CCCCCC(=O)Nc3ccccc3N)cc2CC1=O | 12% (inactive) |

Same assay, conditions: C2C12 myotubes ATP, CellTiter-Glo luminescence, 48 h; at 19.5 µM (top of the series)

| SMILES | ATP level change, positive = increase |
| --- | --- |
| C[C@@H]1CN([C@@H](C)CO)C(=O)c2cc(NS(=O)(=O)c3ccc(Cl)cc3)ccc2O[C@H]1CN(C)C(=O)Nc1cccc2ccccc12 | 6.56% (inactive) |
| C[C@H](CO)N1C[C@H](C)[C@@H](CN(C)Cc2ccc(Oc3ccccc3)cc2)Oc2c(NC(=O)Nc3cccc4ccccc34)cccc2C1=O | 8.68% (inactive) |
| N#C[C@@H]1[C@@H](c2ccc(-c3ccc(F)cc3)cc2)[C@H](CO)N1C(=O)Cc1ccccc1 | 2.91% (inactive) |
| C[C@@H]1CN([C@H](C)CO)C(=O)Cc2cc(NC(=O)C3CCCCC3)ccc2O[C@H]1CN(C)Cc1ccc(Cl)c(Cl)c1 | 15.1% (inactive) |
| Cc1noc(C)c1S(=O)(=O)Nc1ccc2c(c1)CC(=O)N([C@H](C)CO)C[C@H](C)[C@@H](CN(C)Cc1ccc(C(F)(F)F)cc1)O2 | 10.6% (inactive) |
| Cc1ccc(S(=O)(=O)Nc2ccc3c(c2)CC(=O)N([C@@H](C)CO)C[C@@H](C)[C@H](CN(C)Cc2ccc(-c4ccccc4)cc2)O3)cc1 | -0.559% (inactive) |
| C[C@@H]1CN([C@H](C)CO)C(=O)Cc2cc(NS(=O)(=O)c3cn(C)cn3)ccc2O[C@@H]1CN(C)Cc1ccc(Cl)c(Cl)c1 | 9.79% (inactive) |
| COc1ccc(S(=O)(=O)N(C)C[C@H]2Oc3c(NC(=O)Nc4ccccc4)cccc3C(=O)N([C@H](C)CO)C[C@H]2C)cc1 | 7.7% (inactive) |

Same assay, conditions: C2C12 myotubes ATP, CellTiter-Glo luminescence, 48 h; at 21 µM (top of the series)

| SMILES | ATP level change, positive = increase |
| --- | --- |
| CC(C)CC#Cc1cnc2c(c1)C(=O)N([C@H](C)CO)C[C@H](C)[C@@H](CN(C)C(=O)Cc1ccccc1)O2 | 6.23% (inactive) |
| C[C@H]1CN([C@@H](C)CO)C(=O)Cc2cc(NC(=O)CCCCCC(=O)Nc3ccccc3N)ccc2O[C@H]1CN(C)Cc1ccc(C(F)(F)F)cc1 | 5.44% (inactive) |

Same assay, conditions: C2C12 myotubes ATP, CellTiter-Glo luminescence, 48 h; active compounds read high

| SMILES | max activity |
| --- | --- |
| N#C[C@@H]1[C@@H](c2ccc(-c3cccc(F)c3)cc2)[C@H](CO)N1C(=O)c1cccnc1 | 6.17% (inactive) |
| N#C[C@H]1N[C@@H](CO)[C@@H]1c1ccc(-c2cccc(F)c2)cc1 | 7.67% (inactive) |
| N#C[C@@H]1[C@@H](c2ccccc2)[C@H](CO)N1S(=O)(=O)c1ccc(-c2ccccc2)cc1 | -5.62% (inactive) |
| C[C@H]1CN([C@@H](C)CO)C(=O)Cc2cc(NS(=O)(=O)c3ccc(Cl)cc3)ccc2O[C@@H]1CN(C)CC1CCCCC1 | 4.91% (inactive) |
| N#C[C@H]1[C@H](c2ccc(-c3cccc(F)c3)cc2)[C@@H](CO)N1C(=O)NC1CCCC1 | 1.15% (inactive) |
| C[C@H]1CN([C@@H](C)CO)S(=O)(=O)c2ccc(C#CC3CC3)cc2O[C@H]1CN(C)C(=O)Nc1cc(F)ccc1F | -12.1% (inactive) |
| CC(C)=CCC/C(C)=C/CC/C(C)=C/CC/C(C)=C/CO | 1.13% (inactive) |
| C[C@@H]1CN([C@H](C)CO)C(=O)Cc2cc(NC(=O)CCCCCC(=O)Nc3ccccc3N)ccc2O[C@@H]1CN(C)Cc1ccc(Oc2ccccc2)cc1 | -23.3% (inactive) |
| CCCC#Cc1ccc([C@H]2[C@@H](C#N)N(S(=O)(=O)c3cccc(F)c3)[C@H]2CO)cc1 | 3.4% (inactive) |
| C/C=C/c1ccc([C@H]2[C@@H](CO)N(C(=O)NC3CCCC3)[C@H]2C#N)cc1 | -3.18% (inactive) |
| N#C[C@@H]1[C@@H](c2ccc(C#Cc3cccnc3)cc2)[C@@H](CO)N1C(=O)C1CCCC1 | -10.7% (inactive) |
| COc1ccc(-c2ccc([C@@H]3[C@@H](C#N)N(C(=O)NC4CCCC4)[C@H]3CO)cc2)cc1 | 5.47% (inactive) |
| C[C@H]1CN([C@@H](C)CO)C(=O)Cc2cc(NC(=O)CCCCCC(=O)Nc3ccccc3N)ccc2O[C@H]1CN(C)CC1CCCCC1 | 11.1% (inactive) |
| C[C@@H]1CN([C@@H](C)CO)C(=O)Cc2cc(NC(=O)CCCCCC(=O)Nc3ccccc3N)ccc2O[C@@H]1CN(C)Cc1ccc(Oc2ccccc2)cc1 | -25.1% (inactive) |
| C[C@@H]1CN([C@H](C)CO)C(=O)Cc2cc(NC(=O)CCCCCC(=O)Nc3ccccc3N)ccc2O[C@H]1CN(C)Cc1ccc(Oc2ccccc2)cc1 | -0.786% (inactive) |
| COc1ccc(S(=O)(=O)Nc2ccc3c(c2)CC(=O)N([C@H](C)CO)C[C@@H](C)[C@H](CN(C)CC2CCCCC2)O3)cc1 | -10.2% (inactive) |
| N#C[C@@H]1[C@H](c2ccc(-c3cccc(F)c3)cc2)[C@@H](CO)N1C(=O)NC1CCCC1 | -0.345% (inactive) |
| C[C@H](CO)N1C[C@H](C)[C@@H](CN(C)Cc2ccc(C(=O)Nc3ccccc3N)cc2)Oc2ccc(NC(=O)Cc3cn(C)c4ccccc34)cc2C1=O | -9.11% (inactive) |

| SMILES | max activity |
| --- | --- |
| O=C(C[C@H]1CC[C@@H]2[C@H](COC[C@H](O)CN2CCC(F)(F)F)O1)NCc1ccc(Oc2ccccc2)cc1 | 9.67% (inactive) |
| CCS(=O)(=O)N1[C@H](C#N)[C@@H](c2ccc(-c3cccc(F)c3)cc2)[C@@H]1CO | -8.9% (inactive) |
| N#C[C@H]1[C@@H](c2ccc(-c3cccc(F)c3)cc2)[C@@H](CO)N1C(=O)NC1CCCC1 | -0.663% (inactive) |
| COc1ccc(C#Cc2cnc3c(c2)C(=O)N([C@H](C)CO)C[C@H](C)[C@@H](CN(C)C(=O)Nc2cccc(OC)c2)O3)cc1 | 8% (inactive) |
| C[C@@H]1CN([C@H](C)CO)C(=O)c2cccc(NC(=O)c3nc4ccccc4s3)c2O[C@@H]1CN(C)Cc1ccc(C(=O)Nc2ccccc2N)cc1 | -20.8% (inactive) |
| C[C@H]1CN([C@@H](C)CO)C(=O)Cc2cc(NC(=O)Nc3cccc4ccccc34)ccc2O[C@H]1CN(C)Cc1ccc(C(=O)Nc2ccccc2N)cc1 | 10.8% (inactive) |
| C[C@H](CO)N1C[C@H](C)[C@H](CN(C)Cc2ccc(C(=O)Nc3ccccc3N)cc2)Oc2ccc(NC(=O)Nc3cccc4ccccc34)cc2CC1=O | -21.1% (inactive) |
| N#C[C@@H]1[C@@H](c2ccc(-c3cccc(F)c3)cc2)[C@@H](CO)N1C(=O)NC1CCCC1 | 2.16% (inactive) |
| C[C@@H]1CN([C@@H](C)CO)C(=O)c2cc(NC(=O)Cc3cn(C)c4ccccc34)ccc2O[C@@H]1CN(C)Cc1ccc(C(=O)Nc2ccccc2N)cc1 | 14.1% (inactive) |
| N#C[C@@H]1[C@@H](c2ccc(C3=CCCCC3)cc2)[C@H](CO)N1C(=O)NC1CCCC1 | -9.58% (inactive) |
| CCCNC(=O)N1[C@H](C#N)[C@@H](c2ccc(C3=CCCCC3)cc2)[C@@H]1CO | -7.65% (inactive) |
| C[C@H](CO)N1C[C@H](C)[C@H](CN(C)Cc2ccc(C(=O)Nc3ccccc3N)cc2)Oc2ccc(NC(=O)Nc3ccc(F)cc3)cc2CC1=O | -33.9% (inactive) |
| COCC(=O)N1[C@H](C#N)[C@@H](c2ccc(-c3cccc(F)c3)cc2)[C@@H]1CO | 6.18% (inactive) |
| CCCNC(=O)N1[C@@H](C#N)[C@@H](c2ccc(-c3ccccc3F)cc2)[C@@H]1CO | 6.49% (inactive) |
| C[C@H]1CN([C@@H](C)CO)C(=O)c2cc(NC(=O)Cc3cn(C)c4ccccc34)ccc2O[C@H]1CN(C)Cc1ccc(C(=O)Nc2ccccc2N)cc1 | 5.76% (inactive) |
| N#C[C@H]1[C@H](c2ccc(C#CCC3CCCC3)cc2)[C@@H](CO)N1C(=O)CN1CCOCC1 | -19% (inactive) |
| N#C[C@@H]1[C@@H](c2ccccc2-c2ccc(F)cc2)[C@H](CO)N1C(=O)NC1CCCC1 | -6.02% (inactive) |
